According to patent publication US20100168228A1, “NOVEL CHEMOTHERAPEUTIC AGENTS AGAINST INFLAMMATION AND CANCER” (RELIANCE LIFE SCIENCES PVT. LTD., priority 2006, published 2010):

Assays:
[1] = system: Jurkat cells; experiment: DNA fragmentation assay, Jurkat; assay type: cell-based, human; conditions: 24 h
Method: DNA fragmentation Assay: After treatment with the compounds for 24 h, cells were harvested and washed in PBS. The cell pellet was incubated with lysis buffer (10 mM Tris-HCl pH 7.5, 1 mM EDTA, 1% SDS and 80 ug/ml proteinase K) at 37° C. overnight. After extraction with phenol/chloroform, the DNA was precipitated with 100% ethanol and then dissolved in Tris-EDTA buffer (pH 8.0) with RNase A at 37° C. The DNA estimation was performed by taking absorbance at 260/280 nm, and DNA was resolved in a 1.8% agarose gel, stained with ethidium bromide and visualized under a UV transilluminator.

[2] = system: HeLa cells; experiment: Apoptosis by PARP cleavage (FACS), HeLa; assay type: cell-based, human; conditions: 100 nM, 24 h
Method: (§1) FIG. 19: Effect of compound 27 on the apoptosis in cells with different p53 status. Extent of apoptosis in different cells was measured by staining the cells for PARP cleavage followed by FACS analysis. Cells were treated with 100 nM of the compound for 24 h and the level of apoptosis was seen. Percentage apoptotic populations are represented as the M2 gated population.
(§2) PARP Cleavage Assay using Flow Cytometry: Extent of PARP cleavage is determined using polyclonal antibody specifically recognizing the 85 kDa fragment of cleaved PARP (NSB 699 Novus Biologicals) and can be used as a marker for detecting apoptotic cells. Treated cells were fixed with 70% chilled ethanol and permeabilized for 30 min at RT (PBS+0.5% BSA+0.02% NaN3+0.5% saponin) and stained with anti PARP-FITC (10 μl/10^6 cells) for one hour at RT. Cells were washed twice with wash buffer (PBS+1% heat inactivated FBS) and analysed using FACS.

[3] = system: Jurkat cells; experiment: Nuclear staining assay (propidium iodide), Jurkat; assay type: cell-based, human; conditions: 24 h
Method: Nuclear staining assay: After treatment with the compound for 24 h, Jurkat cells were washed once with ice-cold EDTA/PBS (5 mM) and fixed with 70% ethanol for 1 h at RT. Fixed cells were placed on slides and stained with PI (5 μg/ml) with RNase A (1 mg/ml) for 20 mins. After decolourization with water, nuclear morphology of cells was examined by fluorescence microscopy.

[4] = system: MCF-7; experiment: Apoptosis by PARP cleavage (FACS), MCF-7; assay type: cell-based, human; conditions: MCF-7, 100 nM, 24 h
Method: as §1, §2

[5] = system: NF-κB; experiment: NF-κB activation assay, HeLa; assay type: cell-based, human; conditions: 15 μM 3 h, 0.1 nM TNF 30 min
Method: (§3) FIG. 4: Effect of CAMVE on NF-κB activation in different cell lines. A. HeLa, MCF-7, U937, were incubated at 37° C. for 3 h with 15 μM dose of CAMVE and then stimulated with 0.1 nM TNF for 30 min. After these treatments, nuclear extracts were prepared and assayed for NF-κB using BD Transfactor ELISA method. B. RAW 264.7 cells pretreated with indicated doses of CAMVE were stimulated with 100 ng/ml LPS for 30 min and assayed for NF-κB activation.
(§4) Cell pellet was resuspended in lysis buffer (10 mM HEPES, pH 7.9, 1.5 mM MgCl2, 10 mM KCl, 1 mM PMSF, 1 mMDTT, 0.5% NP 40, 0.1 mM EGTA and 0.1 mM EDTA) and allowed to swell on ice for 15 min, followed by centrifugation at 3300×g for 20 min. The cell pellet was resuspended in a volume of lysis buffer equal to the cell pellet volume. The cell suspension was slowly drawn down into a syringe and ejected the content in a single stroke. Disrupted cells were incubated for 15 min on ice, and the disrupted cell suspension was centrifuged at 10,000×g for 20 min at 4° C. […]
(§5) The assay was performed by using wells coated with oligonucleotides having the consensus DNA binding sites for the specific transcription factors. […] Bound transcription factor was detected by a specific Primary Antibody. […] After addition of the substrate, the Absorbance was recorded at 655 nm.

[6] = system: p65; experiment: Nuclear translocation of p65 NF-kB by immunocytochemistry, HeLa; assay type: cell-based, human; conditions: 15 μM 3 h, 0.1 nM TNF
Method: FIG. 5: Effect of CAMVE on TNF or LPS induced nuclear translocation of p65. A. HeLa cells either untreated or pretreated with 15 μM CAMVE for 3 h at 37° C. were stimulated with 0.1 nM TNF and immunocytochemical analysis were performed as described in “Materials and Methods”. B. Jurkat (5×10^5 cells/ml) cells were pretreated with indicated concentrations of CAMVE for 3 h and then stimulated with 0.1 nM of TNF for 30 min or 100 ng/ml of SA-LPS (serum activated LPS) for 15 min. After these treatments, cells were washed twice with PBS and nuclei were isolated by incubating the cells with […] Pipes-Triton buffer for 30 min at 4° C. Nuclei were stained for p65 and analyzed using FACS. (i). Representative histogram overlay showing TNF or LPS stimulated (1), basal (2), CAMVE stimulated (3), p65 staining in the nucleus. (ii). Ordinates gives the Isotype-corrected MFI for various treatments.
Hela cells grown on cover slips were washed with 0.1M potassium phosphate buffer (pH 7.4) and fixed with 4% formaldehyde in 0.1M potassium phosphate buffer (pH 7.4) for 1 h at room temperature. The cells were permeabilized with 0.1% Triton X-100 in PBS for 1 h. […] After counterstaining for nuclei with DAPI or Hoechst for 5 mins slides were analyzed under a fluorescence microscope (Labophot-2. Nikon, Tokyo, Japan).

[7] = system: NF-κB; experiment: NF-κB activation assay, RAW 264.7; assay type: cell-based, mouse; conditions: RAW 264.7, 100 ng/ml LPS 30 min
Method: as §3, §4, §5

Compound	DNA fragmentation (agarose gel) [1]	level of apoptosis (PARP cleavage) [2]	nuclear morphology after propidium iodide staining [3]	level of apoptosis (PARP cleavage) [4]	TNF-induced NF-κB activation [5]	TNF induced p65 nuclear translocation (immunofluorescence) [6]	LPS induced NF-κB activation [7]
COc1cc([C@@H]2Oc3c(OC)cc(/C=C/C(=O)O)cc3[C@H]2C(=O)O)ccc1O [compound 27, 5-[(E)-2-carboxyvinyl]-2β-(4-hydroxy-3-methoxyphenyl)-7-methoxy-2,3-dihydro-1-benzofuran-3α-carboxylic acid]	typical ladder pattern of internucleosomal fragmentation	significant induction of apoptosis	typical apoptotic nuclei	comparable to that of Jurkat cell line	–	–	–
COC(=O)c1ccc(OC(=O)/C=C/c2ccc(O)c(O)c2)c(OC)c1 [compound 1, Methyl 4-{[(2E)-3-(3,4-dihydroxyphenyl)prop-2-enoyl]oxy}-3-methoxybenzoate]	–	–	–	–	blocks TNF-induced NF-κB activation	did not show p65 signal	inhibited NF-κB activation in murine cells
